pIC50: −log10 of the molar value. Blank lines part the entries; values can stand above or below the compound they belong to.
Legend:
[1] = tested on: human PGHS-2; experiment: Prostoglandin endoperoxide synthase-2 (PGHS-2) assay: PGHS-2 protein expression in LPS stimulated human monocytes; format: cell-based
Protocol: Prostoglandin endoperoxide synthase-2 (PGHS-2) assay:
The following assay describes a method for determining the inhibitory effects of compounds of Formula (I) on human PGHS-2 protein expression in LPS stimulated human monocytes.
Method: Human peripheal blood monocytes were isolated from buffy coats by centrifugation through Ficoll and Percoll gradients. Cells were seeded at 2×10^6 /well in 24 well plates and allowed to adhere for 1 hour in RPMI supplemented with 1% human AB serum, 20 mM L-glutamine, Penicillin-Streptomycin and 10 mM HEPES. Compounds were added at various concentrations and incubated at 37° C. for 10 minutes. LPS was added at 50 ng/well (to induce enzyme expression) and incubated overnight at 37° C. The supernatant was removed and cells washed once in cold PBS. The cells were lysed in 100 μl of cold lysis buffer(50 mM Tris/HCl pH 7.5, 150 mM NaCl, 1% NP40, 0.5% sodium deoxycholate, 0.1% SDS, 300 ug/ml DNAse, 0.1% TRITON X-100, 1 mM PMSF, 1 mM leupeptin, 1 mM pepstatin). The lysate was centrifuged (10,000×g for 10 min. at 4° C.) to remove debris and the soluble fraction was subjected to SDS PAGE. analysis (12% gel). Protein separated on the gel were transferred onto nitrocellulose membrane by electrophoretic means for 2 hours at 60 volts. The membrane was pretreated for one hour in PBS/0.1% Tween 20 with 5% non-fat dry milk. After washing 3 times in PBS/Tween buffer, the membrane was incubated with a 1:2000 dilution of a monospecific antiserum to PGHS-2 or a 1:1000 dilution of an antiserum to PGHs-1 in PBS/Tween with 1% BSA for one hour with continuous shaking. The membrane was washed 3× in PBS/Tween and then incubated with a 1:3000 dilution of horseradish peroxidase conjugated donkey antiserum to rabbit Ig (Amershamn) in PBS/Tween with 1% BSA for one hour with continuous shaking. The membrane was then washed 3× in PBS/Tween and the ECL immunodetection system (Amersham) was used to detect the level of expression of prostaglandin endoperoxide synthases-2.

[2] = tested on: IL-1; experiment: Interleukin-1 (IL-1) production by LPS-stimulated human peripheral blood monocytes; format: cell-based; conditions: LPS 50 ng/ml
Protocol: Human peripheral blood monocytes are isolated and purified from either fresh blood preparations from volunteer donors, or from blood bank buffy coats, according to the procedure of Colotta et al, J Immunol, 132, 936 (1984). These monocytes (1×10^6) are plated in 24-well plates at a concentration of 1-2 million/ml per well. The cells are allowed to adhere for 2 hours, after which time non-adherent cells are removed by gentle washing. Test compounds are then added to the cells for 1 h before the addition of lipopolysaccharide (50 ng/ml), and the cultures are incubated at 37° C. for an additional 24 h. At the end of this period, culture supernatants are removed and clarified of cells and all debris. Culture supernatants are then immediately assayed for IL-1 biological activity, either by the method of Simon et al., J. Immunol. Methods, 84, 85, (1985) (based on ability of IL-1 to stimulate a Interleukin 2 producing cell line (EL-4) to secrete IL-2, in concert with A23187 ionophore) or the method of Lee et al., J. Immuno Therapy, 6 (1), 1-12 (1990) (ELISA assay).

[3] = molecular target: T1, CSBP2 (Homo sapiens, UniProt Q16539); experiment: CSBP kinase assay (32P transfer to EGFR-derived peptide T669); format: biochemical
T1 construct: made in house
T1 sequence (Q16539 whole entry): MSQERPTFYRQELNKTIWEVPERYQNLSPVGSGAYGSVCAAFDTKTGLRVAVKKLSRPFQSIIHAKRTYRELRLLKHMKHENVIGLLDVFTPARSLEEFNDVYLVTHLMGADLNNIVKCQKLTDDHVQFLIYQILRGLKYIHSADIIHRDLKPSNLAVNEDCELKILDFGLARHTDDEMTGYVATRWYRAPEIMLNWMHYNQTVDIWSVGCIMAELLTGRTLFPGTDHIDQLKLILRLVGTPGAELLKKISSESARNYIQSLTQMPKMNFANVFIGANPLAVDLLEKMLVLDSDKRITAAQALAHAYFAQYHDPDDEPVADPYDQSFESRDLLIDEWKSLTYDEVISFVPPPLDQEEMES
Protocol: Compounds (5 ul from [6X] stock^(2)) are pre-incubated with the enzyme and peptide for 20 min on ice prior to starting the reactions with 32P/MgATP. Reactions are incubated at 30° C. for 10 min and stopped by adding 10 ul of 0.3 M phosphoric acid. 32P-labeled peptide is separated on phosphocellulose (Wattman, p81) filters by spotting 30 ul reaction mixture. Filters are washed 3 times with […] phosphoric acid followed by 2 washes with H2 O, and counted for 32P.
^(2) Compounds are usually dissolved in DMSO and are diluted in 25 mM Hepes buffer to get final concentration of DMSO of 0.17%.

[4] = molecular target: T2, cytokine specific binding protein (CSBP) (Homo sapiens, UniProt Q16539); experiment: Cytokine Specific Binding Protein Assay (radiocompetitive binding, cytosolic fraction of THP.1 cells); conditions: THP.1 cytosolic fraction, radiolabeled compound
T2 construct: soluble cystosolic fraction from THP.1 cells; endogenous in cells; host or cells: THP.1 cells, soluble cytosolic fraction
T2 sequence (Q16539 whole entry): as above

[5] = active, rank order potency similar to that for inhibiting cytokine production

Structure (SMILES): C[S+]([O-])c1ccc(-c2nc3n(c2-c2ccncc2)CCC3)cc1 (stereo not drawn) [2-(4-Methylsulfinylphenyl)-3-(4-pyridyl)-6,7-dihydro-(5H)-pyrrolo[1,2-a]imidazole]
inhibition of LPS induced PGHS-2 protein expression ([1]; inactive, up to 10 μM): inactive

Structure (SMILES): C[S+]([O-])c1ccc(-c2nc(-c3ccc(F)cc3)c(-c3ccncc3)[nH]2)cc1 (stereo not drawn) [4-(4-Fluorophenyl)-2-(4-methylsulfinylphenyl)-5-(4-pyridyl)imidazole]
inhibition of LPS induced PGHS-2 protein expression [1, 5]: active

Structure (SMILES): Fc1ccc(-c2nc3n(c2-c2ccncc2)CCS3)cc1 [6-(4-Fluorophenyl)-2,3-dihydro-5-(4-pyridinyl)imidazo[2,1-b]thiazole]
inhibition of LPS induced PGHS-2 protein expression [1, 5]: active

Structure (SMILES): C[C@@H]1C[C@H]2[C@@H]3CCC4=CC(=O)C=C[C@]4(C)[C@@]3(F)[C@@H](O)C[C@]2(C)[C@@]1(O)C(=O)CO [Dexamethasone]
inhibition of LPS induced PGHS-2 protein expression [1, 5]: active

Structure (SMILES): COc1nccc(-c2c(-c3ccc(F)cc3)ncn2C2CCNCC2)n1 [Example 1, 5-(2-Methoxy-4-pyrimidinyl)-4-(4-fluorophenyl)-1-(4-piperidinyl)imidazole]
inhibition of IL-1 production [2]: positive inhibition

pIC50 [3]: < 4.30
Structure (SMILES): CC(C)Oc1cc(-c2c(-c3ccc(F)cc3)ncn2C2CCNCC2)ccn1 [Example 5, 5-(2-iso-Propoxy4-pyridinyl)-4-(4-fluorophenyl)-1-(4-piperidinyl)imidazole]

pIC50 [4]: > 4.30
Structure (SMILES): CSc1nccc(-c2c(-c3ccc(F)cc3)ncn2C2CCNCC2)n1 [Example 6, 5-(2-Methylthio-4-pyrimidinyl)4-(4-fluorophenyl)-1-(4-piperidinyl)imidazole]

pIC50 [3]: < 4.30
Structure (SMILES): CCOC(=O)N1CCC(n2cnc(-c3ccc(SC)cc3)c2-c2ccnc(SC)n2)CC1 [Example 9, 1-(1-Ethylcarboxylpiperidin-4-yl)-3-(4-thiomethylphenyl)-5-[2-(thiomethyl)pyrimidin-4-yl]-imidazole]

pIC50 [3]: < 4.30
Structure (SMILES): CCOC(=O)N1CCC(n2cnc(-c3ccc([S+](C)[O-])cc3)c2-c2ccnc([S+](C)[O-])n2)CC1 (stereo not drawn) [Example 10]

Structure (SMILES): CC(Cc1ccc(O)c(O)c1)C(C)Cc1ccc(O)c(O)c1 (stereo not drawn) [NDGA]
inhibition of LPS induced PGHS-2 protein expression ([1]; inactive, up to 10 μM): inactive

Structure (SMILES): O=C1CCN(c2ccccc2)N1 [phenidone]
inhibition of LPS induced PGHS-2 protein expression ([1]; inactive, up to 10 μM): inactive

Structure (SMILES): COc1ccc(C2CNC(=O)C2)cc1OC1CCCC1 (stereo not drawn) [rolipramr]
inhibition of LPS induced PGHS-2 protein expression ([1]; inactive, up to 10 μM): inactive
